One data set addresses human GPR52 (Homo sapiens (Human), UniProt Q9Y2T5). The data set can be described thus: HTRF assay for direct cAMP measurement. It counts as cell-based. The note with it: CHO-K1 cells stably expressing recombinant human GPR52, mean EC50. As to the method: HTRF cAMP assays were performed using commercially available assay kits according to the manufacturer's instructions (cAMP Dynamic 2 Assay Kit; #62AM4PEJ, Cisbio Bioassays, Bedford, MA). An aliquot of CHO-K1 cells stably expressing recombinant human GPR52 was thawed and resuspended in cell buffer (1×PBS (w/o Ca^2+/Mg^2+)) at a density of 4×10^5 cells per mL. Test compounds were solubilized in DMSO to 10 mM stock solutions and serially diluted in DMSO using 6-fold dilutions to generate 8-point dose response curves. These serially diluted samples were then diluted 1:50 in compound dilution buffer (1×PBS (w/o Ca^2+/Mg^2+) containing 0.5 mM IBMX, 0.1% BSA) to achieve a 4× stock. The diluted compounds were transferred (5 μL per well) in duplicate to the 384-well assay plate (Optiplate #6007290, PerkinElmer, Waltham, MA). Both a positive (reference compound) and negative (non-stimulated vehicle) control was included in each assay run in column 23. The cell suspension was subsequently dispensed into the 384-well assay plates at 15 μL per well (6000 cells) such that the compound was diluted to 1×. […] After a one-hour incubation at room temperature, 10 μL of cAMP D2 reagent followed by 10 μL of cryptate reagent (provided in the Cisbio kit) was added to each well. Plates were then incubated at room temperature for one hour prior to reading. Time-resolved fluorescence measurements were collected on an EnVision® HTRF plate reader (PerkinElmer, Waltham, MA). Counts from the plate reader were fit to the cAMP standard curve included on each plate to determine the amount of cAMP in each test well. The % control was calculated based on the […]. Dose-response curves were generated from the cAMP data and analyzed using a nonlinear least squares curve-fitting program to obtain EC50 values.
(Time-resolved FRET reads energy transfer from a long-lived donor to a nearby acceptor.)

In another data set the test system is human plasma proteins. The data set is described as follows: Human plasma protein binding assay (equilibrium dialysis). It counts as in vitro ADME. Particulars: 1 μM, 2 hours, 37° C. The method, then: Equilibrium dialysis (ED) technique was used to determine the approximate in vitro fractional binding of test compounds to plasma proteins. Dianorm Teflon dialysis cells (micro 0.2) were used. Each dialysis cell consists of a donor and an acceptor chamber, separated by an ultrathin semipermeable membrane with a 5 kDa molecular weight cut-off. Stock solutions for each test compound were prepared in DMSO at 1 mM and serially diluted to obtain a final test concentration of 1 μM. The subsequent dialysis solutions were prepared in plasma (supplemented with NaEDTA as anticoagulant), and aliquots of 200 μL test compound dialysis solution in plasma were dispensed into the donor (plasma) chambers. Aliquots of 200 μL dialysis buffer (100 mM potassium phosphate, pH 7.4) were dispensed into the buffer (acceptor) chamber. Incubation was carried out for 2 hours under rotation at 37° C. for establishing equilibrium.
At the end of the dialysis period, aliquots obtained from donor and acceptor chambers, respectively, were transferred into reaction tubes, spiked with Internal Standard solution and processed for HPLC-MS/MS analysis. Analyte concentrations were quantified in aliquots of samples by HPLC-MS/MS against external calibration curves.
Percent bound was calculated using the formula: % bound=(plasma concentration−buffer concentration/plasma concentration)×100
Background: Equilibrium dialysis compares concentrations on both sides of a semipermeable membrane.

For data set [1], the system named is human recombinant CYP enzymes (1A1, 1A2, 2B6, 2C8, 2C9, 2C19, 2D6, 3A4, 3A5). The data set can be described thus: CYP phenotyping with human recombinant CYP enzymes (Supersomes). The class given is in vitro ADME. Further details: key: yes: Metabolite is formed in presence of human recombinant CYP-enzymes; Metabolite is not detected in presence of human recombinant CYP-enzymes as indication of a non-CYP-dependent pathway. The method, then:
(§1) In vitro metabolite profiling to evaluate the involvement of non-CYP-enzyme-mediated metabolic pathways such as hydrolysis in addition to CYP-mediated pathways is based on the semiquantitative analysis of the formation of prototypic metabolites in incubations with liver microsomes (with and without beta-nicotinamide adenine dinucleotide phosphate, NADPH), primary human hepatocytes (with and without the pan-CYP inhibitor proadifen) and recombinant CYP enzymes.
(§2) The involvement of hydrolases, such as carboxylesterases or arylacetamide deacetylase, is assumed if the metabolite resulting from amide hydrolysis of a compound of the present invention of general formula (I) wherein R^6 is an acetyl-group, i.e. the deacetylated compound thereof, is not formed in presence of the relevant drug-metabolizing human recombinant CYP enzymes but is formed in human liver microsomes in the absence of NADPH. Hydrolases are highly abundant in liver microsomes; however, in contrast to CYP-related metabolic processes, the catalytic activity of hydrolases is independent of NADPH. As such, the deacetylated metabolite would be formed in incubations of human liver microsomes lacking NADPH.
(§3) A phenotyping assay was performed to identify the CYP enzymes responsible for metabolic conversion of the compound. The metabolic degradation of the test compound and the assessment of formation of metabolites was performed using Supersomes (human CYP expressed in baculovirus infected insect cells) and human liver microsomes, respectively. Compounds were tested specifically for their conversion by CYP isoenzymes 1A1, 1A2, 2B6, 2C8, 2C9, 2C19, 2D6, 3A4 and 3A5. […]
(§4) Following a short preincubation period for 15 min at 37° C., the reaction was initiated by addition of NADPH (reduced form, 1 mM). […] Samples were analyzed for formation of putative metabolites by means of by liquid chromatography-high resolution mass spectrometry.

A short description of data set [2]: In vitro metabolite profiling in human liver microsomes in absence of NADPH. It counts as in vitro ADME. Further details: key: yes: Metabolite is formed in presence of human liver microsomes in the absence of cofactors as indication of a non-CYP-dependent pathway; Metabolite is not detected in microsomal incubations. As to the method:
as §1, §2, §3, §4
For orientation: Microsomes from liver hold many membrane-bound enzymes, among them those of drug oxidation.

The mark [3] stands for this setting: secondary metabolite m443 (of m429).
[4] abbreviates: secondary metabolite m405 (of m411).
Setting [5] is: secondary metabolite m425 (of m411).

Experimental findings from US12115157B2, “3-phenoxyazetidin-1-yl-heteroaryl pyrrolidine derivatives and the use thereof as medicament” (Boehringer Ingelheim International GmbH, priority 2021, dated 2024) are described below.

human GPR52, sequence (Q9Y2T5 whole entry): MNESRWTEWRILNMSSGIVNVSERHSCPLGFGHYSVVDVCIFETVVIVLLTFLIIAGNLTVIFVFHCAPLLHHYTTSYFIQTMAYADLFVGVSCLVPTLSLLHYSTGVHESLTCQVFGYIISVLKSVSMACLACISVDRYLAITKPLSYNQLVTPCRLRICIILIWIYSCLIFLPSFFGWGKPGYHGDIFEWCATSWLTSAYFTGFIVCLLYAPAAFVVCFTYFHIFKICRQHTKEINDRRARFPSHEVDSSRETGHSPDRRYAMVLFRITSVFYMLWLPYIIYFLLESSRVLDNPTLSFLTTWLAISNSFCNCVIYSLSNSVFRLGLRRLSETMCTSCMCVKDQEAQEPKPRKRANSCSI

A word on the EC50: it is the concentration needed to bring the measured effect to its halfway point. For `CC(=O)N1CC[C@@H](NC(=O)c2nsnc2N2CC(Oc3cc(F)cc(F)c3)C2)C1` [Example 15a], the EC50 at human GPR52 amounted to 20 nM. For the same compound, in the data set with human plasma proteins, the “Hu PPB” value was found to be 90.2 % bound.

Regarding `CC(=O)N1C[C@H](NC(=O)c2nccnc2N2CC(Oc3cc(F)c(F)c(F)c3)C2)C(F)(F)C1` [Example 11b], the “Specific formation in human recombinant CYP enzymes” value in data set [1] (setting [3]) was “no”. Besides, the “Formation in human liver microsomal incubations in absence of NADPH” value in data set [2] (setting [3]) is listed as “no^6”. Moreover, in the data set with human plasma proteins, the “Hu PPB” value stood at 84.4 % bound.

Turning to `CC(=O)N1C[C@H](NC(=O)c2nccnc2N2CC(Oc3cc(F)cc(F)c3)C2)C(F)(F)C1` [Example 10a], on human GPR52, the EC50 came out at 14 nM. Also, the “Specific formation in human recombinant CYP enzymes” value in data set [1] (setting [4]) and in data set [1] (setting [5]) was “no^5” in each case. Also, the “Formation in human liver microsomal incubations in absence of NADPH” value in data set [2] (setting [4]) and in data set [2] (setting [5]) was “no^5” throughout. The “Hu PPB” value with human plasma proteins turned out to be 82.4 % bound.
